Where “and” joins values, the source holds several entries; their conditions need not be identical. Equal values may be shown once.
Columns and labels:
A549 (lung carcinoma) = experiment: MTT cytotoxicity assay, A549; type: cell-based; conditions: Homo sapiens, A549, MTT; for cytotoxicity at 100 µg/mL: 100 μg ml^−1, 48 hours, read-out: (%) Mortality A549
Method: (§1) Using specific human cancer cell lines, the anti-proliferative effectiveness of compounds 7a–j was evaluated in an in vitro assay. The anti-cancer activity of these compounds (7a–j) on various cancer cell lines, including PC3 (Prostate cell line), A549 (Lung carcinoma), PACA2 (Pancreatic cancer cell line) and BJ1 (normal skin fibroblast), was investigated in this study using the 3-(4,5-dimethylthiazol-2-yl)-2,5-diphenyltetrazolium bromide (MTT) test. Doxorubicin (Dox) was the standard medication used as a positive control.
(§2) All incubations were performed at 37 °C in a 5% CO2 incubator with a 95% humidified environment (Sheldon, TC2323; Cornelius, OR, USA). 96-well micro titer polypropylene plates were seeded with cells at a density of 10^4 cells per well in complete DMEM media, and the cells were allowed to adhere for 24 hours. After the media was aspirated, the tested compounds were added to the cells in a single dose of 100 μg ml^−1 in DMSO. Each well received 40 μl of MTT salt (2.5 g ml^−1) following a 48 hour incubation period. 200 μl of 10% sodium dodecyl sulfate (SDS) was added to each well after the reaction ended, and any formazan crystals that could have been produced were dissolved by two hours of incubator heating to 37 °C. The amount of formazan product was measured at 595 nm using a microplate reader (Bio-Rad Laboratories, model 3350, California, USA) with a reference wavelength of 690 nm, serving as a backdrop. Rather than the drugs under investigation, the medium was applied to the untreated cells (negative control). The examined compounds were dissolved in dimethylsulfoxide (DMSO), and the final concentration in the cells was less than 0.2%. For each compound and the control, the solvent concentration was the same.

[1] = tested on: BJ1 (normal skin fibroblast); conditions: 100 μg ml^−1, 48 hours, MTT
Method: Using specific human cancer cell lines, the anti-proliferative effectiveness of compounds 7a–j was evaluated in an in vitro assay. The anti-cancer activity of these compounds (7a–j) on various cancer cell lines, including PC3 (Prostate cell line), A549 (Lung carcinoma), PACA2 (Pancreatic cancer cell line) and BJ1 (normal skin fibroblast), was investigated in this study using the 3-(4,5-dimethylthiazol-2-yl)-2,5-diphenyltetrazolium bromide (MTT) test.
In the initial screening trial, a single dosage concentration of 100 μg ml^−1 was applied for 48 hours. The cytotoxicity of the treated cells was determined by calculating the cell death percentage (% mortality) as a percentage of untreated cells (Table 2).
Cell viability was tested using the MTT assay, 3-(4,5-dimethylthiazol-2-yl)-2,5-diphenyl-tetrazolium bromide (Bio Basic Canada Inc. Toronto, Canada).[26] Under class II biosafety regulations, the procedures were carried out in a sterile laminar air flow cabinet (Baker, SG403INT; Sanford, ME, USA). Cell lines were obtained from the American type culture collection (ATCC) as a gift from Dr Stig Linder, Karonisca Institute, Sweden. All incubations were performed at 37 °C in a 5% CO2 incubator with a 95% humidified environment (Sheldon, TC2323; Cornelius, OR, USA). 96-well micro titer polypropylene plates were seeded with cells at a density of 10^4 cells per well in complete DMEM media, and the cells were allowed to adhere for 24 hours. After the media was aspirated, the tested compounds were added to the cells in a single dose of 100 μg ml^−1 in DMSO. Each well received 40 μl of MTT salt ([…]) following a 48 hour incubation period. 200 μl of 10% sodium dodecyl sulfate (SDS) was added to each well after the reaction ended, and any formazan crystals that could have been produced were dissolved by two hours of incubator heating to 37 °C. The amount of formazan product was measured at 595 nm using a microplate reader (Bio-Rad Laboratories, model 3350, California, USA) with a reference wavelength of 690 nm, serving as a backdrop. Rather than the drugs under investigation, the medium was applied to the untreated cells (negative control). The examined compounds were dissolved in dimethylsulfoxide (DMSO), and the final concentration in the cells was less than 0.2%. For each compound and the control, the solvent concentration was the same.

[2] = tested on: PACA2 (pancreatic cancer cell line); experiment: MTT cytotoxicity assay, PACA2; type: cell-based; conditions: Homo sapiens, PaCa-2; 100 μg ml^−1, 48 hours, MTT; read-out: (%) Mortality PACA2
Method: as §1, §2

PC3 (prostate cell line) = experiment: MTT cytotoxicity assay, PC3; type: cell-based; conditions: Homo sapiens, 100 μg ml^−1, 48 hours, MTT, read-out: (%) Mortality PC3
Method: as §1, §2

Row | SMILES | cytotoxicity at 100 µg/mL (A549 (lung carcinoma)) [%] | (%) Mortality BJ1 (cytotoxicity percentage on normal cells) [1] | cytotoxicity at 100 µg/mL [2] [%] | cytotoxicity at 100 µg/mL (PC3 (prostate cell line)) [%] | IC50 (A549 (lung carcinoma); 48 hour incubation) [µM]
1 | CCc1nn(-c2ccc([N+](=O)[O-])cc2)c2nc(=O)c(C)nn12 [Compound 7b, 3-Ethyl-6-methyl-1-(4-nitrophenyl)-[1,2,4]triazolo[4,3-b][1,2,4]triazin-7(1H)-one] | 35.2 ± 1.22 | 4.2 ± 0.98% | 3.6 ± 0.21 | 24.5 ± 0.57 | –
2 | CCCc1nn(-c2ccc([N+](=O)[O-])cc2)c2nc(=O)c(C)nn12 [Compound 7c, 6-Methyl-1-(4-nitrophenyl)-3-propyl-[1,2,4]triazolo[4,3-b][1,2,4]triazin-7(1H)-one] | 22.9 ± 0.81 | 1.6 ± 0.38% | 10.5 ± 0.61 | 27.3 ± 1.2 | –
3 | Cc1nn2c(C(C)C)nn(-c3ccc([N+](=O)[O-])cc3)c2nc1=O [Compound 7d, 3-Isopropyl-6-methyl-1-(4-nitrophenyl)-[1,2,4]triazolo[4,3-b][1,2,4]triazin-7(1H)-one] | 33.3 ± 0.22 | 36.2 ± 1.11% | 11.5 ± 0.25 | 17.9 ± 0.38 | –
4 | Cc1nn2c(CC(C)C)nn(-c3ccc([N+](=O)[O-])cc3)c2nc1=O [Compound 7e, 3-Isobutyl-6-methyl-1-(4-nitrophenyl)-[1,2,4]triazolo[4,3-b][1,2,4]triazin-7(1H)-one] | 86.3 ± 0.74 | 6.4% and 6.4 ± 0.85% | 8.6 ± 0.33 | 35.1 ± 1.11 | 42.5
5 | Cc1ccc(-c2nn(-c3ccccc3)c3nc(=O)c(C)nn23)cc1 [Compound 7f, 6-Methyl-1-phenyl-3-(p-tolyl)-[1,2,4]triazolo[4,3-b][1,2,4]triazin-7(1H)-one] | 69.1 ± 0.77 | 3.2% and 3.2 ± 0.63% | 5.6 ± 0.11 | 33.4 ± 1.18 | –
6 | Cc1nn2c(-c3ccc(Cl)cc3)nn(-c3ccccc3)c2nc1=O [Compound 7h, 3-(4-Chlorophenyl)-6-methyl-1-phenyl-[1,2,4]triazolo[4,3-b][1,2,4]triazin-7(1H)-one] | 13.5 ± 0.33 | 9.6 ± 0.93% | 21.3 ± 0.98 | 24.2 ± 0.21 | –
7 | Cc1nn2c(-c3ccco3)nn(-c3ccc([N+](=O)[O-])cc3)c2nc1=O [Compound 7i, 3-(Furan-2-yl)-6-methyl-1-(4-nitrophenyl)-[1,2,4]triazolo[4,3-b][1,2,4]triazin-7(1H)-one] | 14.2 ± 0.24 | 2.9 ± 1.22% | 9.6 ± 1.33 | 18.4 ± 1.14 | –
8 | Cc1nn2c(-c3cccs3)nn(-c3ccc([N+](=O)[O-])cc3)c2nc1=O [Compound 7j, 6-Methyl-1-(4-nitrophenyl)-3-(thiophen-2-yl)-[1,2,4]triazolo[4,3-b][1,2,4]triazin-7(1H)-one] | 32.8 ± 0.54 | 3.8 ± 0.77% | 7.2 ± 0.88 | 15.9 ± 0.51 | –

— publication PMC11862990, “Utility of 6-aza-2-thiothymine in the synthesis of novel [1,2,4]triazolo[4,3-b][1,2,4]triazin-7-one derivatives: synthesis, structure elucidation, molecular docking and in vitro anti-lung cancer activity” (RSC Advances, 2025)
